The values that follow come from US7973219B2, “Method for producing transgenic plants resistant to weed control compounds which disrupt the porphyrin pathways of plants” (Sumitomo Chemical Company, Limited, priority 1998, dated 2011).

What all share (assay type): cell-based, Escherichia coli
For assay [1], the system named is E. coli BT3/pACYCSP strain. Kind of assay: Growth of E. coli BT3/pACYCSP with herbicidal compound (absorbance at 600 nm). As to conditions: 18 hours culture, A600, medium without compound = 1, Table 1. From the text:
(§1) According to the description of Gibson, L. C. D. et al., Proc. Natl. Acad. Sci. USA, 92; p 1941 (1995), the DNA fragment containing bchH gene prepared in Example 1 was digested with the restriction enzymes NdeI and BglII. The resultant DNA fragment was inserted between NdeI restriction site and BamHI restriction site of expression vector pET11a (manufactured by Stratagene) to obtain plasmid pETBCH (FIG. 1). This plasmid pETBCH was introduced into E. coli BL21(DE3) strain competent cells (manufactured by Stratagene) according to the manual attached to the competent cells to obtain E. coli BL21(DE3)/pETBCH strain. The strain was inoculated into 1.5 ml LB liquid culture medium (1% tryptone, 0.5% yeast extract, 0.5% NaCl) containing 100 μg/ml ampicillin in a tube (14×10 mm), and the tube was covered with aluminum foil (hereinafter referred to as dark conditions), cultured with shaking at 37° C. under light of fluorescent lamp (about 8000 lux). When the absorbance at 600 nm of the liquid culture medium became about 0.6, isopropyl β-D-thiogalactopyranoside (IPTG) was added to the liquid culture medium so that the final concentration was 0.4 mM, and the culture was continued for about additional 20 hours. […] In contrast to this, when E. coli BL21(DE3)/pETBCH strain was cultured according to the same manner (with IPTG) except that the tube was not covered with aluminum foil (hereinafter referred to as light conditions), E. coli grew and turned red as above.
The plasmid pSPPO-P was digested with restriction enzyme PshBI, the resultant DNA fragment was blunted by using T4 DNA polymerase and further digested with SphI to isolate the DNA fragment containing chloroplast-type PPO gene of soybean and lac promoter. Then, the plasmid pACYC184 (manufactured by Nippon Gene) was digested with the restriction enzymes NruI and SphI to remove a fragment of 410 bp and the above DNA fragment was inserted instead to obtain plasmid pACYCSP (FIG. 2). […]
E. coli BT3/pACYCSP strain prepared in Example 3 was inoculated into YPT medium containing 10 or 1 ppm of PPO inhibitory type herbicidal compound represented by the above Structure 8, 10 μg/ml hemin, 50 μg/ml aminolevulinic acid, 15 μg/ml chloramphenicol and 10 μg/ml kanamycin, cultured under dark conditions or light conditions according to the same manner as in Example 2. […] Then, 18 hours after initiation of culture, the absorbance of the liquid culture medium was measured at 600 nm. By taking the absorbance of the medium without the herbicidal compound as 1, the relative value of the absorbance of the medium containing the herbicidal compound was calculated.

Assay [2] relates to E. coli BT3/pACYCSP+pHEMF strain. Kind of assay: Growth of E. coli BT3/pACYCSP+pHEMF (E. coli hemF) with herbicidal compound. As to conditions: 18 hours culture, Table 14.
Text: as §1
The DNA fragment containing hemF gene amplified by the method described in Example 26 was digested with restriction enzymes FbaI and PstI, and inserted between BamHI restriction site and PstI restriction site of commercially available plasmid […] (manufactured by Takara Shuzo Co., Ltd.) to construct plasmid pHEMF (FIG. 16).
The plasmid pHEMF and pTV118N were introduced into E. coli BT3/pACYCSP strain prepared in Example 3 respectively according to the method described in Hanahan, D. J., Mol. Biol., 166; p 557 (1983). […]
(§2) These E. coli strains were inoculated into YPT medium containing 10 or 1 ppm of the PPO inhibitory-type herbicidal compound represented by Structure 8, 100 μg/ml ampicillin, 15 μg/ml chloramphenicol, 10 μg/ml kanamycin, 10 μg/ml hemin and 50 μg/ml aminolevulinic acid, cultured under dark conditions or light conditions according to the same manner as in Example 2. Then, 18 hours after initiation of culture, the absorbance of liquid culture medium was measured at 600 nm. By taking the absorbance of the medium without the herbicidal compound as I, the relative value of the absorbance of the medium containing the herbicidal compound was calculated.

Assay [3] deals with E. coli BT3/pACYCSP+pCR2.1 strain. Nature of the assay: Growth of E. coli BT3/pACYCSP+pCR2.1 (vector control) with herbicidal compound. As to conditions: 18 hours culture, Table 6.
Text: as §1
The plasmid pTCHLH1 and pCR2.1 prepared in Example 7 were introduced into E. coli BT3/pACYCSP strain prepared in Example 3, respectively according to the method described in Hanahan, D. J., Mol. Biol., 166; p 557 (1983). E. coli BT3/pACYCSP+pTCHLH1 strain bearing plasmids pACYCSP and pTCHLH1, and E. coli BT3/pACYCSP+pCR2.1 strain bearing plasmids pACYCSP and pCR2.1 were obtained by culturing the above strains in YPT medium containing 100 μg/ml ampicillin, 15 μg/ml chloramphenicol and 50 μg/ml kanamycin, respectively.
as §2, with “μg/ml chloramphenicol, 50 μg/ml kanamycin,” for “μg/ml chloramphenicol, 10 μg/ml kanamycin,”, “absorbance of the liquid culture” for “absorbance of liquid culture”, “compound as 1, the relative” for “compound as I, the relative”

`C#CCOc1cc(N2C(=O)C3=C(CCCC3)C2=O)c(F)cc1Cl` [Structure 8]: the Relative absorbance in assay [1] (in the dark, 1 ppm) is 0.95; in assay [1] (in the dark, 10 ppm), 0.73; in assay [1] (in the light, 1 ppm) it was 0.25; in assay [1] (in the light, 10 ppm), 0.10; in assay [2] (in the dark, 1 ppm), 0.95; in assay [2] (in the dark, 10 ppm), 0.94. Besides, the Relative absorbance in assay [2] (in the light, 1 ppm) is given as 1.0; in assay [2] (in the light, 10 ppm) it was 0.48; in assay [3] (in the dark, 1 ppm) it was 1.0; in assay [3] (in the dark, 10 ppm), 1.0; in assay [3] (in the light, 1 ppm) it was 0.08; in assay [3] (in the light, 10 ppm), 0.03.
